Results taken from article PMC6874683, “Pyrrothiogatain acts as an inhibitor of GATA family proteins and inhibits Th2 cell differentiation in vitro” (Scientific Reports, 2019).

Columns and labels:
RelA = target: T1, RelA (Homo sapiens, UniProt Q04206); assay: AlphaScreen binding assay of RelA and its target DNA (control); conditions: second screen, 0 to 10 µM
T1 construct: FLAG; made in house; host or cells: wheat cell-free protein synthesis system (inferred from the general methods)
From the text: Figure 2 Identification of a GATA3 inhibitor using the wheat cell-free drug screening system. (A) A flow chart of the high-throughput screening to identify the 3-(2,5-dimethyl-1H-pyrrol-1-yl)thiophene-2-carboxylic acid that inhibits the DNA-binding activity of GATA3. The 3-(2,5-dimethyl-1H-pyrrol-1-yl)thiophene-2-carboxylic acid was named pyrrothiogatain (pyrrole and thiofuran containing GATA3 inhibitor). (B) The results of the first screen using 9,600 compounds. In the assay, each chemical compound was used at a final concentration of 10 µM. (C) The results of the second screening that show the inhibition rate of pyrrothiogatain. The inhibition assay of GATA3 DNA-binding activity was performed in the presence of various concentrations of pyrrothiogatain (0 to 10 µM). Biotinylated FLAG-peptide was used as a control to measure the interference of compounds in the AlphaScreen assay. In addition, a binding assay of RelA and its target DNA was used as control for GATA3. (D) Electrophoretic mobility shift assay (EMSA) of GATA3 with its consensus motif containing oligonucleotide in the presence of various concentrations of pyrrothiogatain (0 to 100 µM). GATA3 consensus oligonucleotide labelled with ^32P was detected by autoradiography. […] In (B,D,E), all data are expressed as individual points of three independent experiments with error bars indicating standard deviation. […]

GATA3 expression = assay: Intracellular staining of GATA3, CD4+ T cells under IL-2 conditions; assay type: cell-based, mouse; conditions: 30 µM, two days
Experimental: The in vitro differentiated CD4^+ T cells were stimulated using an immobilized anti-TCR-β mAb (3 µg/ml, H57–597, BioLegend) for 6 h in the presence of monensin (2 µM). The cells were fixed with 4% paraformaldehyde (Cat#163–20145, Wako) and permeabilized with permeabilization buffer (50 mM NaCl, 5 mM EDTA, 0.02% NaN3, and 0.5% Triton X-100). Then, the cells were stained using the following antibodies, anti-IL-4-PE (Cat#504103, BioLegend, 1:50), anti-IL-5-APC (Cat#504305, BioLegend, 1:50), anti-IL-13-PE (Cat#12–7133–41, eBiosience, 1:50), anti-IFN-γ-FITC (Cat#562019, BD Biosciences, 1:500), and anti-IL-2-APC (Cat#503809, BioLegend, 1:50). For the intracellular staining of Gata3, the Foxp3/Transcription Factor Staining Buffer Kit (cat#TNB-0607, TONBO) was used according to the manufacturer’s protocol. Flow cytometry was performed using a Gallios Flow Cytometer instrument (Beckman Coulter) and a FACS Caliber instrument (BD Biosciences) and the results were analysed using the FlowJo software program (Tree Star, Ashland, OR, USA).
(D) Intracellular staining of GATA3 in CD4+ T cells stimulated with immobilized anti-TCRβ mAb plus anti-CD28 mAb under IL-2 conditions in the presence or absence of pyrrothiogatain (30 µM) for two days.

T1 sequence (Q04206 whole entry, species assumed): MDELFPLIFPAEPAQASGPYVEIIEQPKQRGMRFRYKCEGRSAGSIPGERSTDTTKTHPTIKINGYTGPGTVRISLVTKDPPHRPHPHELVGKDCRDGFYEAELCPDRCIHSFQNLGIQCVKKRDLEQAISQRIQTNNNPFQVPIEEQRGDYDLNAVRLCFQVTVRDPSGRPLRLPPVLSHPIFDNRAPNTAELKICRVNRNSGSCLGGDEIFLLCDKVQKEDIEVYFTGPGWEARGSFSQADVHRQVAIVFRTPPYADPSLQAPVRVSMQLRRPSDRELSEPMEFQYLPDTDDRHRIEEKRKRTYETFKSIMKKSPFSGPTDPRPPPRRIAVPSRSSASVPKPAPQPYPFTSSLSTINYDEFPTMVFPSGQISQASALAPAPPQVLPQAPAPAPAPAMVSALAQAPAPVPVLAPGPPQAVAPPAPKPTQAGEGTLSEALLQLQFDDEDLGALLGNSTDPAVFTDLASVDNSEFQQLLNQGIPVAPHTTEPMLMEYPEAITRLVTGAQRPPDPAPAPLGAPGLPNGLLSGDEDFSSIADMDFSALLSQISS

Interference with the RelA-DNA interaction (RelA): without interfering
SMILES: Cc1ccc(C)n1-c1ccsc1C(=O)O [Pyrrothiogatain, 3-(2,5-dimethyl-1H-pyrrol-1-yl)thiophene-2-carboxylic acid]
Expression of GATA3, protein level (GATA3 expression): not influenced
